Where a name gives a salt, the structure may show the parent alone. Marks after values point to notes of the source that are not given here.
How the values were obtained:
5-HT2B receptor [1] = molecular target: T1, 5-HT2B receptor (Homo sapiens, UniProt P41595); test: 5-HT2B receptor binding, ligand displacement assay with 3H-LSD radioligand; conditions: human receptor in CHO-K1; for inhibition at 0.001 µM: 1 nM compound; for inhibition at 0.01 µM: 10 nM compound; for inhibition at 0.1 µM: 100 nM compound
T1 construct: host or cells: CHO-K1
T1 sequence (P41595 whole entry): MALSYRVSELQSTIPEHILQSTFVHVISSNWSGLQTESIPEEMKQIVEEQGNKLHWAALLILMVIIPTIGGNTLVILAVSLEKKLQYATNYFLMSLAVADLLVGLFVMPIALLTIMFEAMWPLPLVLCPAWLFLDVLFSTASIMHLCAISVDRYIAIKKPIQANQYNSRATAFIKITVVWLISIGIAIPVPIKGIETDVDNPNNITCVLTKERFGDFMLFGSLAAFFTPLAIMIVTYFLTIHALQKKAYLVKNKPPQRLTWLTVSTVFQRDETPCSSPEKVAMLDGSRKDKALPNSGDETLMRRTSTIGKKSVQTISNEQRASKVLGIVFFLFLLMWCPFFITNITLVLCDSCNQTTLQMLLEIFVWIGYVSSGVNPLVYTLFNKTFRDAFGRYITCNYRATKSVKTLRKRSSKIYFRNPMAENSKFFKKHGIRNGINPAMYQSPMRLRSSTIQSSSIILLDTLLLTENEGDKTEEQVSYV
Protocol: (§1) 5-HT2B receptor binding (performed at Eurofins Panlabs Taiwan, Ltd.) to human receptor protein expressed in CHO-K1 cells was determined in a ligand displacement assay using ^3H-lysergic acid diethylamide (LSD) as radioligand and ketanserine as a standard reference compound, or alternatively*, with ^3H-mesulergine and SB 206553 as reference. Data is presented as % displacement of radioligand at indicated compound concentrations, see Table 1.

5-HT2B receptor [2] = molecular target: T1, 5-HT2B receptor; test: 5-HT2B receptor binding, ligand displacement assay, alternative (*) with 3H-mesulergine; conditions: * 3H-mesulergine radioligand, SB 206553 reference; for 5-HT2B receptor binding (% displacement) 1 nM: 1 nM compound; for inhibition at 0.01 µM: 10 nM compound; for 5-HT2B receptor binding (% displacement) 100 nM: 100 nM compound
Protocol: as §1

| SMILES | 5-HT2B receptor binding (% displacement) 1 nM (5-HT2B receptor [2]) | inhibition at 0.01 µM (5-HT2B receptor [2]) [%] | 5-HT2B receptor binding (% displacement) 100 nM (5-HT2B receptor [2]) | inhibition at 0.001 µM (5-HT2B receptor [1]) [%] | inhibition at 0.01 µM (5-HT2B receptor [1]) [%] | inhibition at 0.1 µM (5-HT2B receptor [1]) [%] |
| --- | --- | --- | --- | --- | --- | --- |
| CC1CN(C(=N)N)c2ncc3ccccc3c21 (centres unmarked) [Example 4, 1-Methyl-1,2-dihydro-3H-pyrrolo[2,3-c]isoquinoline-3-carboximidamide hydrochloride] | – | – | – | -1 | 16 | 64 |
| CC1CN(C(=N)NCc2ccc(F)cc2)c2ccc3c(Br)cccc3c21 (centres unmarked) [Example 26, 6-Bromo-N-(4-fluorobenzyl)-1-methyl-1,2-dihydro-3H-benzo[e]indole-3-carboximidamide 2,2,2-trifluoroacetic acid salt] | – | – | – | 43 | 90 | 98 |
| CCCCNC(=N)N1CC(C)c2c1ccc1c(Br)cccc21 (centres unmarked) [Example 15, 6-Bromo-N-butyl-1-methyl-1,2-dihydro-3H-benzo[e]indole-3-carboximidamide 2,2,2-trifluoroacetic acid salt] | – | – | – | – | 103 | – |
| CC1CN(C(=N)NCc2ccc(F)c(F)c2)c2ccc3ccccc3c21 (centres unmarked) [Example 10, N-(3,4-Difluorobenzyl)-1-methyl-1,2-dihydro-3H-benzo[e]indole-3-carboximidamide hydrochloride] | – | – | – | 7 | 50 | 91 |
| CCCc1cccc2c3c(ccc12)N(C(=N)N)CC3C (centres unmarked) [Example 43, 1-Methyl-6-propyl-1,2-dihydro-3H-benzo[e]indole-3-carboximidamide hydrochloride] | – | – | – | 21 | 70 | 96 |
| CCCCNC(=N)N1CC(C)c2c1ccc1ccccc21 (centres unmarked) [Example 7, N-Butyl-1-methyl-1,2-dihydro-3H-benzo[e]indole-3-carboximidamide hydrochloride] | – | – | – | 32 | 77 | 96 |
| CNC(=N)N1CC(C)c2c1ccc1ccccc21 (centres unmarked) [Example 6, N,1-Dimethyl-1,2-dihydro-3H-benzo[e]indole-3-carboximidamide hydrochloride] | – | – | – | 18 | 57 | 93 |
| CC1CN(C(=N)N)c2cc(F)c3c(Cl)cccc3c21 (centres unmarked) [Example 45, 6-Chloro-5-fluoro-1-methyl-1,2-dihydro-3H-benzo[e]indole-3-carboximidamide hydrochloride] | – | – | – | 77 | 100 | 98 |
| CC1CN(C(=N)N)c2ccc3c(C4CC4)cccc3c21 (centres unmarked) [Example 42, 6-Cyclopropyl-1-methyl-1,2-dihydro-3H-benzo[e]indole-3-carboximidamide hydrochloride] | – | – | – | 1 | 56 | 96 |
| CC1CN(C(=N)N)c2ccc3c(-c4ccccc4)cccc3c21 (centres unmarked) [Example 41, 1-Methyl-6-phenyl-1,2-dihydro-3H-benzo[e]indole-3-carboximidamide hydrochloride] | – | – | – | 0 | 7 | 40 |
| CC1CN(C(=N)Nc2ccc(F)cc2)c2ccc3c(Br)cccc3c21 (centres unmarked) [Example 30, 6-Bromo-N-(4-fluorophenyl)-1-methyl-1,2-dihydro-3H-benzo[e]indole-3-carboximidamide 2,2,2-trifluoroacetic acid salt] | – | – | – | – | 105 | – |
| CC1CN(C(=N)NCC(F)(F)F)c2ccc3c(Br)cccc3c21 (centres unmarked) [Example 22, 6-Bromo-1-methyl-N-(2,2,2-trifluoroethyl)-1,2-dihydro-3H-benzo[e]indole-3-carboximidamide 2,2,2-trifluoroacetic acid salt] | – | – | – | – | 95 | – |
| COCCNC(=N)N1CC(C)c2c1ccc1c(Br)cccc21 (centres unmarked) [Example 23, 6-Bromo-N-(2-methoxyethyl)-1-methyl-1,2-dihydro-3H-benzo[e]indole-3-carboximidamide 2,2,2-trifluoroacetic acid salt] | – | – | – | – | 100 | – |
| C#CCNC(=N)N1CC(C)c2c1ccc1c(Br)cccc21 (centres unmarked) [Example 18, 6-Bromo-1-methyl-N-(prop-2-yn-1-yl)-1,2-dihydro-3H-benzo[e]indole-3-carboximidamide 2,2,2-trifluoroacetic acid salt] | – | – | – | – | 104 | – |
| CC1CN(C(=N)NCc2ccccc2)c2ccc3ccccc3c21 (centres unmarked) [Example 8, N-Benzyl-1-methyl-1,2-dihydro-3H-benzo[e]indole-3-carboximidamide hydrochloride] | – | – | – | 30 | 80 | 99 |
| COc1cc2c(c3ccccc13)C(C)CN2C(=N)N (centres unmarked) [Example 44, 5-Methoxy-1-methyl-1,2-dihydro-3H-benzo[e]indole-3-carboximidamide hydrochloride] | – | – | – | 9 | 13 | 70 |
| CC1CN(C(=N)N)c2cnc3ccccc3c21 (centres unmarked) [Example 5, 1-Methyl-1,2-dihydro-3H-pyrrolo[2,3-c]quinoline-3-carboximidamide hydrochloride] | – | – | – | 11 | 28 | 71 |
| CC1CN(C(=N)NCc2ccc(Cl)cc2)c2ccc3ccccc3c21 (centres unmarked) [Example 9, N-(4-Chlorobenzyl)-1-methyl-1,2-dihydro-3H-benzo[e]indole-3-carboximidamide hydrochloride] | – | – | – | 26 | 55 | 95 |

Now from value to compound, other results behind:

| 5-HT2B receptor binding (% displacement) 1 nM (5-HT2B receptor [2]) | inhibition at 0.01 µM (5-HT2B receptor [2]) [%] | 5-HT2B receptor binding (% displacement) 100 nM (5-HT2B receptor [2]) | SMILES | inhibition at 0.001 µM (5-HT2B receptor [1]) [%] | inhibition at 0.01 µM (5-HT2B receptor [1]) [%] | inhibition at 0.1 µM (5-HT2B receptor [1]) [%] |
| --- | --- | --- | --- | --- | --- | --- |
| 26* % | 64 | 94* % | C#Cc1cccc2c3c(ccc12)N(C(=N)N)CC3C (centres unmarked) [Example 40, 6-Ethynyl-1-methyl-1,2-dihydro-3H-benzo[e]indole-3-carboximidamide 2,2,2-trifluoroacetic acid salt] | – | – | – |
| 4* % | 7 | 20* % | CC1CN(C(=N)N)c2ccc3c([S+](C)[O-])cccc3c21 (centres unmarked) [Example 38, 1-Methyl-6-(methylsulfinyl)-1,2-dihydro-3H-benzo[e]indole-3-carboximidamide 2,2,2-trifluoroacetic acid salt] | – | – | – |
| 5* % | 53 | 94* % | CSc1cccc2c3c(ccc12)N(C(=N)N)CC3C (centres unmarked) [Example 37, 1-Methyl-6-(methylthio)-1,2-dihydro-3H-benzo[e]indole-3-carboximidamide 2,2,2-trifluoroacetic acid salt] | – | – | – |
| 10* % | 48 | 90* % | COc1cccc2c3c(ccc12)N(C(=N)N)CC3C (centres unmarked) [Example 36, 6-Methoxy-1-methyl-1,2-dihydro-3H-benzo[e]indole-3-carboximidamide 2,2,2-trifluoroacetic acid salt] | – | – | – |
| 6* % | 8 | 28* % | CC1CN(C(=N)N)c2ccc3c(S(C)(=O)=O)cccc3c21 (centres unmarked) [Example 39, 1-Methyl-6-(methylsulfonyl)-1,2-dihydro-3H-benzo[e]indole-3-carboximidamide 2,2,2-trifluoroacetic acid salt] | – | – | – |
| 30* % | 88 | 102* % | CC1CN(C(=N)N)c2ccc3c(I)cccc3c21 (centres unmarked) [Example 34, 6-Iodo-1-methyl-1,2-dihydro-3H-benzo[e]indole-3-carboximidamide 2,2,2-trifluoroacetic acid salt] | – | – | – |
